# From PMC6901909, “Synergy Pattern of Short Cationic Antimicrobial Peptides Against Multidrug-Resistant Pseudomonas aeruginosa” (Frontiers in Microbiology, 2019)
# Peptide text beside a SMILES is read from it.
# Key:
# [1] = tested on: P. aeruginosa PA01-wt; assay: microbe, parasite or virus in culture; format: cell-based, Pseudomonas aeruginosa; details: -wt, 18 h
# Protocol: (§1) We selected six different P. aeruginosa isolates that were described as MDR and had been isolated from clinical and municipal waste water ([Schwartz et al., 2006]). The minimal inhibitory concentration (MIC) was determined in a microdilution assay using Mueller-Hinton (MH) broth following a previously published protocol ([Wiegand et al., 2008]). Briefly, a twofold serial dilution of the antibiotics and peptides were prepared and added to a bacteria solution, resulting in 2–5 10^5 CFU/ml. The microtiter plates (polypropylene, Corning) were incubated for 18 h at 37°C and MICs were taken visually.
# [2] = tested on: MDR P. aeruginosa PA 910; assay: microbe, parasite or virus in culture; format: cell-based, Pseudomonas aeruginosa
# Protocol: as §1
# [3] = tested on: MDR P. aeruginosa PA253; assay: microbe, parasite or virus in culture; format: cell-based, Pseudomonas aeruginosa; details: MDR PA253, 18 h
# Protocol: as §1
# [4] = tested on: MDR P. aeruginosa PA 919; assay: microbe, parasite or virus in culture; format: cell-based, Pseudomonas aeruginosa; details: MDR PA 919, 18 h
# Protocol: as §1
# [5] = tested on: MDR isolate of P. aeruginosa (PA 910); details: checkerboard, MHb, for the Indopt versions 1/8 MHb, 2–5 × 10^5 CFU/ml, 37°C, 18 h, visual, determined once (n = 1)
# Protocol: The checkerboard assay was used to determine the fractional inhibitory concentrations (FICs), following the protocol described in Koneman’s Color Atlas and Textbook of Diagnostic Microbiology ([Winn et al., 2006]). Briefly, combinations of peptides and antibiotics were prepared in 96-well plates (polypropylene, Corning) in a twofold dilution series. After the addition of a log-phase bacterial inoculum of 2–5 × 10^5 CFU/ml, plates were incubated at 37°C for 18 h. The FICs were determined by visual inspection and the effects of the combinations were determined using the FICs. The FIC was computed by adding two partial FIC values, FICA—the MIC of drug A, tested in combination with drug B divided by the MIC of drug A, tested alone and FICB—the MIC of drug B, tested in combination with drug A divided by the MIC of drug B, tested alone [FIC = FICA + FICB = (MICAB/MICA) + (MICBA/MICB), where MICA and MICB are the MICs of drugs A and B alone, respectively, and MICAB and MICBA are the MIC concentrations of the drugs in combination]. Here we use the European Committee for Antimicrobial Susceptibility Testing (EUCAST) definition, which is very similar to the definition provided by [Odds, 2003], except Odds define additive effects when FIC values are between 0.5 and 1 ([European Committee for Antimicrobial Susceptibility Testing [EUCAST] of the European Society of Clinical Microbiology and Infectious Diseases [ESCMID], 2000]; [Odds, 2003]). The combination of peptide (drug A) and antibiotics (drug B) was defined as synergistic if the FIC was ≤ 0.5, indifferent if the FIC was > 0.5 but ≤ 4.0 and antagonistic if the FIC was > 4.0.
SMILES,MIC against PA01 wt [1],"MIC against PA910 in μM (peptides, Table 4) ([2]; MDR PA 910, 18 h)","MIC against MDR isolates of PA, PA253 [3]","MIC against MDR isolates of PA, PA919 [4]",also measured
CC[C@H](C)[C@H](NC(=O)[C@@H](N)Cc1ccccc1)C(=O)N[C@@H](CCCCN)C(=O)N[C@@H](Cc1c[nH]c2ccccc12)C(=O)N[C@@H](CCCNC(=N)N)C(=O)N[C@@H](Cc1ccccc1)C(=O)N[C@@H](CCCNC(=N)N)C(=O)N[C@@H](CCCNC(=N)N)C(=O)N[C@@H](Cc1c[nH]c2ccccc12)C(=O)N[C@@H](CCCCN)C(=O)N[C@@H](CCCCN)C(=O)N[C@@H](CCCNC(=N)N)C(=O)N[C@H](C(N)=O)[C@@H](C)O [Indopt 2] (H-FIKWRFRRWKKRT-NH2),4 µM,8 µM,16 µM,32 µM,–
CC[C@H](C)[C@H](NC(=O)[C@H](CCCNC(=N)N)NC(=O)[C@H](C)NC(=O)[C@H](CC(C)C)NC(=O)[C@@H](N)CCCNC(=N)N)C(=O)N[C@H](C(=O)N[C@H](C(=O)N[C@H](C(=O)N[C@@H](CCCNC(=N)N)C(=O)N[C@@H](Cc1c[nH]c2ccccc12)C(=O)N[C@@H](C)C(=O)N[C@@H](CCCNC(=N)N)C(N)=O)[C@@H](C)CC)C(C)C)C(C)C [Peptide W10] (H-RLARIVVIRWAR-NH2),16 µM,–,16 µM,16 µM,"MIC against MDR isolates of PA, PA910 ([2]; MDR PA 910, 18 h): 16 µM"
CC[C@H](C)[C@H](NC(=O)[C@H](Cc1c[nH]c2ccccc12)NC(=O)[C@H](CCCCN)NC(=O)[C@H](CCCCN)NC(=O)[C@H](CC(C)C)NC(=O)[C@H](Cc1c[nH]c2ccccc12)NC(=O)[C@H](CCCCN)NC(=O)[C@@H](N)Cc1c[nH]c2ccccc12)C(=O)N[C@@H](CCCCN)C(N)=O [LOP5] (H-WKWLKKWIK-NH2),4 µM,8 µM,8 µM,8 µM,–
N=C(N)NCCC[C@H](NC(=O)[C@H](CCCNC(=N)N)NC(=O)[C@@H](N)Cc1ccccc1)C(=O)N[C@@H](Cc1c[nH]c2ccccc12)C(=O)N[C@@H](Cc1c[nH]c2ccccc12)C(=O)N[C@@H](CCCCN)C(=O)N[C@@H](Cc1c[nH]c2ccccc12)C(=O)N[C@@H](Cc1ccccc1)C(=O)N[C@@H](CCCCN)C(N)=O [HHC-53] (H-FRRWWKWFK-NH2),8 µM,32 µM,8 µM,16 µM,–
CC[C@H](C)[C@H](NC(=O)[C@H](CCCNC(=N)N)NC(=O)[C@H](CCCNC(=N)N)NC(=O)[C@H](CC(C)C)NC(=O)[C@@H](N)CCCNC(=N)N)C(=O)N[C@H](C(=O)N[C@H](C(=O)N[C@H](C(=O)N[C@@H](CCCNC(=N)N)C(=O)N[C@H](C(=O)N[C@@H](C)C(=O)N[C@@H](CCCNC(=N)N)C(N)=O)C(C)C)[C@@H](C)CC)C(C)C)C(C)C [Peptide R3] (H-RLRRIVVIRVAR-NH2),16 µM,32 µM,16 µM,16 µM,–
CC[C@H](C)[C@H](NC(=O)[C@@H](N)Cc1ccccc1)C(=O)N[C@@H](CCCCN)C(=O)N[C@@H](Cc1c[nH]c2ccccc12)C(=O)N[C@@H](CCCCN)C(=O)N[C@@H](CCCCN)C(=O)N[C@@H](CCCNC(=N)N)C(=O)N[C@@H](Cc1c[nH]c2ccccc12)C(=O)N[C@@H](Cc1c[nH]c2ccccc12)C(=O)N[C@@H](CCCCN)C(=O)N[C@@H](CCCCN)C(=O)N[C@@H](CCCNC(=N)N)C(=O)N[C@H](C(N)=O)[C@@H](C)O [Indopt 1] (H-FIKWKKRWWKKRT-NH2),4 µM,8 µM,16 µM,32 µM,–
CC[C@H](C)[C@H](NC(=O)[C@H](CCCNC(=N)N)NC(=O)[C@H](Cc1c[nH]c2ccccc12)NC(=O)[C@H](CC(C)C)NC(=O)[C@@H](N)CCCNC(=N)N)C(=O)N[C@H](C(=O)N[C@H](C(=O)N[C@H](C(=O)N[C@@H](CCCNC(=N)N)C(=O)N[C@H](C(=O)N[C@@H](CCCCN)C(=O)N[C@@H](CCCNC(=N)N)C(N)=O)C(C)C)[C@@H](C)CC)C(C)C)C(C)C [Sub 7] (H-RLWRIVVIRVKR-NH2),16 µM,–,16 µM,32 µM,"MIC against PA910 in μM (peptides, Table 4) ([2]; peptide alone, as listed in the FIC table): 32 µM; FIC, combination with AMI ([5]; peptide + amikacin): 0.53; FIC, combination with CEF ([5]; peptide + cefepime): 0.56; FIC, combination with CET ([5]; peptide + ceftazidime): 0.56; FIC, combination with CIP ([5]; peptide + ciprofloxacin): 0.75; FIC, combination with ERY ([5]; peptide + erythromycin): 0.5; FIC, combination with GEN ([5]; peptide + gentamycin): 0.75; FIC, combination with IMI ([5]; peptide + imipenem): 2; FIC, combination with KAN ([5]; peptide + kanamycin): 0.63; FIC, combination with MER ([5]; peptide + meropenem): 0.51; FIC, combination with PIP ([5]; peptide + piperacillin): 0.53; FIC, combination with PMB ([5]; peptide + polymyxin B): 1; FIC, combination with TET ([5]; peptide + tetracycline): 0.5; FIC, combination with TOB ([5]; peptide + tobramycin): 2"
CC[C@H](C)[C@H](NC(=O)[C@@H](NC(=O)[C@H](CCCNC(=N)N)NC(=O)[C@H](Cc1c[nH]c2ccccc12)NC(=O)[C@H](CCCNC(=N)N)NC(=O)[C@@H](N)CCCNC(=N)N)C(C)C)C(=O)N[C@H](C(=O)N[C@@H](CCCCN)C(=O)N[C@@H](Cc1c[nH]c2ccccc12)C(N)=O)C(C)C [LOP4] (H-RRWRVIVKW-NH2),4 µM,4 µM,8 µM,4 µM,–
CC[C@H](C)[C@H](N)C(=O)N[C@@H](CC(C)C)C(=O)N[C@@H](CCCCN)C(=O)N[C@@H](Cc1c[nH]c2ccccc12)C(=O)N[C@@H](CCCCN)C(=O)N[C@@H](CCSC)C(=O)N[C@@H](Cc1ccccc1)C(=O)N[C@@H](CCCCN)C(=O)N[C@@H](Cc1c[nH]c2ccccc12)C(=O)N[C@@H](CCCCN)C(=O)N[C@@H](Cc1c[nH]c2ccccc12)C(=O)N[C@@H](Cc1ccccc1)C(=O)N[C@@H](CCCNC(=N)N)C(N)=O [Indopt 12] (H-ILKWKMFKWKWFR-NH2),2 µM,4 µM,16 µM,16 µM,–
CC[C@H](C)[C@H](NC(=O)[C@@H](N)Cc1ccccc1)C(=O)N[C@@H](CCCCN)C(=O)N[C@@H](Cc1c[nH]c2ccccc12)C(=O)N[C@@H](CCCCN)C(=O)N[C@@H](Cc1ccccc1)C(=O)N[C@@H](CCCNC(=N)N)C(=O)N1CCC[C@H]1C(=O)N[C@@H](Cc1c[nH]c2ccccc12)C(=O)N[C@@H](CCCCN)C(=O)N[C@@H](CCCCN)C(=O)N[C@@H](CCCNC(=N)N)C(=O)N[C@H](C(N)=O)[C@@H](C)O [Indopt 5] (H-FIKWKFRPWKKRT-NH2),4 µM,8 µM,16 µM,16 to 32 µM,–
